In ChEMBL document CHEMBL5614367, “Hydroxamic acid hybrids: Histone deacetylase inhibitors with anticancer therapeutic potency” (Eur J Med Chem, 2023):
pIC50: −log10 of the molar value. One block for each compound: values may come before it.

Columns and labels:
K562 [1] = experiment: Cytotoxicity against human K562 cells assessed as reduction in cell viability incubated for 72 hrs by Cell-titer Glo based analysis; format: functional; details: K562, 72 h
NALM-6 = experiment: Cytotoxicity against human NALM-6 cells assessed as reduction in cell viability incubated for 72 hrs by MTT assay; format: functional, cell-based; details: NALM-6, 72 h
MOLM-13 = experiment: Antiproliferative activity against human MOLM-13 cells assessed as reduction in cell viability incubated for 72 hrs by MTT assay; format: functional, cell-based; details: MOLM-13, 72 h
Plasmodium falciparum [2] = experiment: Antiplasmodial activity against artemisinin-resistant Plasmodium falciparum Dd2 R539T assessed as reduction in parasite growth incubated for 3 days by ELISA analysis; format: functional, organism-based; details: 72 h
HL-60 [3] = experiment: Cytotoxicity against human HL-60 cells assessed as reduction in cell viability incubated for 72 hr by MTT assay; format: functional, cell-based; details: HL-60, 72 h
HPBALL = experiment: Cytotoxicity against human HPBALL cells assessed as reduction in cell viability incubated for 72 hrs by MTT assay; format: functional, cell-based
HL-60 [4] = experiment: Cytotoxicity against human HL-60 cells assessed as reduction in cell viability incubated for 72 hrs by Cell-titer Glo based analysis; format: functional; details: HL-60, 72 h
[5] = biological target: T1, Protein deacetylase HDAC6 (Homo sapiens, UniProt Q9UBN7); experiment: Inhibition of human recombinant HDAC6 using ZMAL (Z-Lys(Ac)-AMC as fluorogenic substrate pre-incubated for 30 mins followed by substrate addition and measured for 1 hr by Fluorescence based analysis
T1 sequence (Q9UBN7 whole entry): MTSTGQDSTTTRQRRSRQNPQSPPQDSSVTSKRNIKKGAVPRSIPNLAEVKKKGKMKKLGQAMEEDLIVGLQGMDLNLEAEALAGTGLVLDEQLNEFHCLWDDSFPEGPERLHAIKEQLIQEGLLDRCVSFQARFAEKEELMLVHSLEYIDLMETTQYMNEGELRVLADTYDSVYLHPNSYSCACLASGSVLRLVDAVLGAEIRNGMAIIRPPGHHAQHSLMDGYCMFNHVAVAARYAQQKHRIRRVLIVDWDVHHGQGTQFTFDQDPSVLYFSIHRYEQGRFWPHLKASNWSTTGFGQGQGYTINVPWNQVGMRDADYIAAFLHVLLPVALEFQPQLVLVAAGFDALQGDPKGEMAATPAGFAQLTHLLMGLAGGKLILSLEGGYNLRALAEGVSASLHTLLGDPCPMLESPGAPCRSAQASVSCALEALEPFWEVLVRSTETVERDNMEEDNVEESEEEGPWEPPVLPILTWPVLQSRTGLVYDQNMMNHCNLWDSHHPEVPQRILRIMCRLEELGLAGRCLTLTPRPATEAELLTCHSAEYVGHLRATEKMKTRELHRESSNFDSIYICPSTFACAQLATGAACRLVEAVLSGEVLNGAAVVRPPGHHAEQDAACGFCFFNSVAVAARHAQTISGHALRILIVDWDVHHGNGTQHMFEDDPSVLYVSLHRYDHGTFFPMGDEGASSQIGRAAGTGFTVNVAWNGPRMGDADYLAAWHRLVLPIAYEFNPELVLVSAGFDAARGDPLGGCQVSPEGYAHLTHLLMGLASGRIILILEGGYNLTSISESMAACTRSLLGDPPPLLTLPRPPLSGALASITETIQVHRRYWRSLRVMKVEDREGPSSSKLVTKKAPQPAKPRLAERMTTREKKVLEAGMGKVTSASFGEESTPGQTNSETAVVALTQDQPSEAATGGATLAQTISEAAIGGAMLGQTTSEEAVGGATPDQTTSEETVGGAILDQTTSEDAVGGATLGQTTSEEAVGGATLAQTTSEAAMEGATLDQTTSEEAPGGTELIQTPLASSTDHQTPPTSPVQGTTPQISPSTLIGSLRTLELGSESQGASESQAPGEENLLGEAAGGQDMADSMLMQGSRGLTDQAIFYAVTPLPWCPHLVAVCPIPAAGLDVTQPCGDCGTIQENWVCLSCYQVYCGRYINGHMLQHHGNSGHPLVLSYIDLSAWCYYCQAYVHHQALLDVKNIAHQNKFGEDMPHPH

Plasmodium falciparum [6] = experiment: Antiplasmodial activity against Plasmodium falciparum 3D7 assessed as reduction in parasite growth incubated for 3 days by ELISA analysis; format: functional, organism-based; details: 3D7, 72 h
Plasmodium falciparum [7] = experiment: Antiplasmodial activity against Plasmodium falciparum Dd2 assessed as reduction in parasite growth incubated for 3 days by ELISA analysis; format: functional, organism-based; details: Dd2, 72 h
HCT-116 [8] = experiment: cells; details: Homo sapiens
Description: Antiproliferative activity against human HCT-116 cells

[9] = biological target: Serine/threonine-protein kinase B-raf (Homo sapiens, UniProt P15056); experiment: Inhibition of wild type BRAF (unknown origin)
[10] = biological target: T1, Protein deacetylase HDAC6; experiment: Inhibition of HDAC6 (unknown origin)
Histone deacetylase 1 [11] = biological target: T2, Histone deacetylase 1 (Homo sapiens, UniProt Q13547); experiment: Inhibition of HDAC1 (unknown origin)
[12] = Cytotoxicity against human L02 cells; format: toxicity, cell-based
[13] = Cytotoxicity against human BEAS-2B cells; format: toxicity, cell-based
[14] = biological target: T1, Protein deacetylase HDAC6; experiment: Inhibition of HDAC6 (unknown origin) incubated for 30 mins in presence of fluorimetric assay
NCI-H23 = experiment: Antiproliferative activity against human NCI-H23 cells incubated for 48 hrs by colorimetric method; format: functional, cell-based; details: NCI-H23, 48 h
PC-3 = experiment: Antiproliferative activity against human PC-3 cells incubated for 48 hrs by colorimetric method; format: functional, cell-based; details: PC-3, 48 h
SW-620 = experiment: Antiproliferative activity against human SW620 cells incubated for 48 hrs by colorimetric method; format: functional, cell-based; details: SW-620, 48 h
HCT-116 [15] = experiment: cells; format: functional, cell-based; details: Homo sapiens, HCT-116, 48 h
A549 [16] = experiment: Antiproliferative activity against human A549 cells assessed as inhibition of cell growth incubated for 48 hrs by SRB assay; format: functional, cell-based; details: A549, 48 h
Histone deacetylase 1 [17] = biological target: T2, Histone deacetylase 1; experiment: Inhibition of HDAC1 in human HeLa cells incubated for 72 hrs by ELISA; format: cell-based
HeLa = experiment: Antiproliferative activity against human HeLa cells assessed as cell growth inhibition by SRB assay; format: functional
K562 [18] = experiment: Antiproliferative activity against human K562 cells assessed as cell growth inhibition by SRB assay; format: functional
[19] = biological target: T1, Protein deacetylase HDAC6; experiment: Inhibition of HDAC6 in human HeLa cells incubated for 72 hrs by ELISA; format: cell-based
MCF7 = experiment: Antiproliferative activity against human MCF7 cells assessed as cell growth inhibition by SRB assay; format: functional
A549 [20] = experiment: Antiproliferative activity against human A549 cells assessed as cell growth inhibition by SRB assay; format: functional
KYSE-450 [21] = experiment: Potency index, ratio of TAE-226 IC50 to test compound IC50 for antiproliferative activity against human KYSE-450 cells; format: functional
MGC-803 [22] = experiment: Antiproliferative activity against human MGC-803 cells; format: functional, cell-based
HGC-27 = experiment: Antiproliferative activity against human HGC-27 cells; format: functional, cell-based
MGC-803 [23] = experiment: Antitumor activity against human MGC-803 cells xenografted in mouse assessed as tumor growth inhibition at 20 mg/kg relative to control; format: functional; details: read-out: TGI
Focal adhesion kinase 1 = Focal adhesion kinase 1 (Homo sapiens, UniProt Q05397); experiment: Inhibition of FAK (unknown origin)
HCT-116 [24] = experiment: Potency index, ratio of vorinostat IC50 to test compound IC50 for antiproliferative activity against human HCT-116 cells; format: functional
HCT-116 [25] = experiment: Potency index, ratio of TAE-226 IC50 to test compound IC50 for antiproliferative activity against human HCT-116 cells; format: functional
BGC-823 = experiment: Antiproliferative activity against human BGC-823 cells; format: functional, cell-based
KYSE-450 [26] = experiment: Potency index, ratio of vorinostat IC50 to test compound IC50 for antiproliferative activity against human KYSE-450 cells; format: functional
KYSE-450 [27] = experiment: Antiproliferative activity against human KYSE-450 cells; format: functional, cell-based

T2 sequence (Q13547 whole entry): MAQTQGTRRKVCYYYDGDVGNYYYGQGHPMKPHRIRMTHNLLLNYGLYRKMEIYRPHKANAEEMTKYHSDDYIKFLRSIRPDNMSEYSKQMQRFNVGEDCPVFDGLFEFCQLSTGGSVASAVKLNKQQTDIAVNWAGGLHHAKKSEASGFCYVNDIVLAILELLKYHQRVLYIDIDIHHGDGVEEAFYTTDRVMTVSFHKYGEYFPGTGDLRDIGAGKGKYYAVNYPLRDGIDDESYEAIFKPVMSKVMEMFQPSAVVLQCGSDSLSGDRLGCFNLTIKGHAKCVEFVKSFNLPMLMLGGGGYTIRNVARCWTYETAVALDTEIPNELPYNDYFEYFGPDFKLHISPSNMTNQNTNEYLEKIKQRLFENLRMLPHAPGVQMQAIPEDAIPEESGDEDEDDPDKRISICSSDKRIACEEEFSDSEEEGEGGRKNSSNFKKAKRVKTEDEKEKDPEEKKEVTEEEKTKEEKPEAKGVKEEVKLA
Chain of Serine/threonine-protein kinase B-raf (P15056 whole entry): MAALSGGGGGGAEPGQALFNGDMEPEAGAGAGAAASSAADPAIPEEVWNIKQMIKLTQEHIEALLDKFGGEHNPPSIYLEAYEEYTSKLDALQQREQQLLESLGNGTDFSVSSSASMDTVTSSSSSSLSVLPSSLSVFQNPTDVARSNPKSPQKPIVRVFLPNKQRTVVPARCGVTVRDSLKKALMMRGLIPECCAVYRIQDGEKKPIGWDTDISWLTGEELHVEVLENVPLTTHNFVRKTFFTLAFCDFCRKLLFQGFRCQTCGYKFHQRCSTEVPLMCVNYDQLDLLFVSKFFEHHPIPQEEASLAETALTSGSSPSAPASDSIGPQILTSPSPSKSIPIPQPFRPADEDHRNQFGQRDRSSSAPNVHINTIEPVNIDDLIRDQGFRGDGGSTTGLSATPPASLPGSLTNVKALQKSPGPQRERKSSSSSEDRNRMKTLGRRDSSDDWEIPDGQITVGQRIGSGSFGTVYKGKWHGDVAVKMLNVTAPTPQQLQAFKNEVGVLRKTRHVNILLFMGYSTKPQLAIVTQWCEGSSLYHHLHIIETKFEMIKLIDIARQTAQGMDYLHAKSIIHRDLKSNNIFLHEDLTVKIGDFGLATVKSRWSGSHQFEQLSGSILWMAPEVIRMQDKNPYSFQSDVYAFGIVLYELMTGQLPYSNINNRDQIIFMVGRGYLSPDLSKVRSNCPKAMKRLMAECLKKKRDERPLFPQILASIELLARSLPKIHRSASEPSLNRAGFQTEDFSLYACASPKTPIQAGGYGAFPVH
Chain of Focal adhesion kinase 1 (Q05397 whole entry): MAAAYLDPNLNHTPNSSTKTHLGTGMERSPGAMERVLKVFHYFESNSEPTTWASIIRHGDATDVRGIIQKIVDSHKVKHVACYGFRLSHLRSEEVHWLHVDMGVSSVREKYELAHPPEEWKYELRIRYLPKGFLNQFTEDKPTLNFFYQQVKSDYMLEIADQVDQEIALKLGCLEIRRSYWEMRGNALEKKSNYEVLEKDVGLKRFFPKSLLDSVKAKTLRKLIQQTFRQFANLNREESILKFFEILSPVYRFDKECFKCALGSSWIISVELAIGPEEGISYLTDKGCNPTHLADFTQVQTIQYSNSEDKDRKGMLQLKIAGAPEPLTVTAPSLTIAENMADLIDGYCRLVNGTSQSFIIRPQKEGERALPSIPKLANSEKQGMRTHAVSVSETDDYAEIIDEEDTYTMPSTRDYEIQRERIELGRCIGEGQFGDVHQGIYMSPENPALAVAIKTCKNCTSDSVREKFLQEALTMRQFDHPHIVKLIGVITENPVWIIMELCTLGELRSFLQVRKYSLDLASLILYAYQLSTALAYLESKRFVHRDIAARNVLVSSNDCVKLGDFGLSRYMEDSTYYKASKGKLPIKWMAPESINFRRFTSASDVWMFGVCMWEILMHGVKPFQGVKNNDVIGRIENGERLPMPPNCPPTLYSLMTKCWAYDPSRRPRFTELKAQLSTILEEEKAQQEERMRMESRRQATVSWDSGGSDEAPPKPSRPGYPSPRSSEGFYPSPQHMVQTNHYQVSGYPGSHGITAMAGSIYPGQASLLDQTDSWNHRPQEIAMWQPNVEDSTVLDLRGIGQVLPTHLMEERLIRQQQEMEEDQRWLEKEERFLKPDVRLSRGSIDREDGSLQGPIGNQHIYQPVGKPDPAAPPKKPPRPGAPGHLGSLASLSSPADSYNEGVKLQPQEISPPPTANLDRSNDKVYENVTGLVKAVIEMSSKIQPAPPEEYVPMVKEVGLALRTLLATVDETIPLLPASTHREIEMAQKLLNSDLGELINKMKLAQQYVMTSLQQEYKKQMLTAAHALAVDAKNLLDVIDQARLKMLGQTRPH

SMILES: C[C@@H]1CC[C@H]2[C@@H](C)C(OCC(=O)NO)C[C@@H]3O[C@]4(C)CC[C@@H]1[C@]32OO4 (stereo partly specified)
pIC50 (K562 [1]): 6.16
pIC50 (NALM-6): 6.82
pIC50 (MOLM-13): 6.16
pIC50 (Plasmodium falciparum [2]): 8.72
pIC50 (HL-60 [3]): 6.16
pIC50 (HPBALL): 6.82
pIC50 (HL-60 [4]): 6.16
pIC50 [5]: 6.73
pIC50 (Plasmodium falciparum [6]): 8.72
pIC50 (Plasmodium falciparum [7]): 8.72

SMILES: CCCOc1ccc2c(OCCCCCCCC(=O)NO)cc(=O)oc2c1
pIC50 [12]: < 4.30
pIC50 [13]: < 4.30

SMILES: O=C(/C=C/c1ccc2c(=O)n(Cc3ccc(Cl)cc3)cnc2c1)NO
pIC50 [14]: 7.33
pIC50 (NCI-H23): 6.17
pIC50 (PC-3): 6.17
pIC50 (SW-620): 6.17

SMILES: O=C(NO)c1ccc(CNc2cccc3cc(-c4cccnc4)cnc23)cc1
pIC50 (HCT-116 [15]): 5.89
pIC50 (A549 [16]): 5.89

SMILES: C[C@@H]1CC[C@H]2[C@@H](C)C(SCCC(=O)NO)C[C@@H]3O[C@]4(C)CC[C@@H]1[C@]32OO4 (stereo partly specified)
pIC50 (K562 [1]): 6.16
pIC50 (NALM-6): 6.59
pIC50 (MOLM-13): 6.16
pIC50 (Plasmodium falciparum [2]): 8.72
pIC50 (HL-60 [3]): 6.16
pIC50 (HPBALL): 6.82
pIC50 (HL-60 [4]): 6.16
pIC50 [5]: 7.35
pIC50 (Plasmodium falciparum [6]): 8.72
pIC50 (Plasmodium falciparum [7]): 8.72

SMILES: CNC(=O)c1ccccc1Nc1nc(Nc2ccc(NC(=O)CCCCCCC(=O)NO)cc2)ncc1Cl
Ratio IC50 (KYSE-450 [21]): 2.8
pIC50 (HCT-116 [8]): 6.74
pIC50 (MGC-803 [22]): 8.41
pIC50 (HGC-27): 7.74
inhibition in vivo at 20 mg/kg (MGC-803 [23]): 53.5%
pIC50 (Focal adhesion kinase 1): 6.88
Ratio IC50 (HCT-116 [24]): 2.8
Ratio IC50 (HCT-116 [25]): 2.8
pIC50 [10]: 7.80
pIC50 (BGC-823): 7.81
Ratio IC50 (KYSE-450 [26]): 2.8
pIC50 (KYSE-450 [27]): 6.74

The next lines start with the values.

pIC50 (HCT-116 [8]): 6.51
pIC50 [9]: 8.77
pIC50 [10]: 7.81
pIC50 (Histone deacetylase 1 [11]): 7.81
SMILES: CC(C)(C)c1nc(-c2cccc(NS(=O)(=O)c3c(F)cccc3F)c2F)c(-c2ccnc(NCCCCCCC(=O)NO)n2)s1

pIC50 (Histone deacetylase 1 [17]): 7.28
GI50 (HeLa): < 10 µM
GI50 (K562 [18]): < 10 µM
pIC50 [19]: 7.28
GI50 (MCF7): < 10 µM
GI50 (A549 [20]): < 10 µM
SMILES: COc1ccc(-c2cn(CCCCCC(=O)NO)c(C)c2C(C)=O)cc1

pIC50 (Histone deacetylase 1 [17]): 7.28
GI50 (HeLa): < 10 µM
GI50 (K562 [18]): < 10 µM
pIC50 [19]: 7.28
GI50 (MCF7): < 10 µM
GI50 (A549 [20]): < 10 µM
SMILES: CC(=O)c1c(-c2ccc([N+](=O)[O-])cc2)cn(CCCCCC(=O)NO)c1C
